The values that follow come from patent publication US20250041412A1, “TRANSMEMBRANE NEOANTIGENIC PEPTIDES” (INSTITUT CURIE, priority 2021, published 2025).

Entries after “also recorded” stand apart in the source; their conditions may differ. Some results are limits rather than exact numbers.

Assay [1] relates to CD8+ T cells. Put plainly: Priming of naive CTLs by peptide-loaded moDCs, two-colour tetramer staining (immunogenicity). The assay is classed as cell-based, human. As to conditions: for expansion of specific CD8+ T cells (tetramer staining): one HLA-A2+ healthy donor, at least one magnitude order more tetramer positive cells than control without peptides; for specific CD8+ T expansions (immunogenicity): total of 6 HLA-A2+ healthy donors, FIG. 12A. How it is done:
Priming of naïve CTLs. PBMCs were obtained by Ficoll gradient separation from HLA-A2+healthy blood donors. CD14+, CD4+ and CD8+ cells were purified by positive selection using magnetic beads (Miltenyi Biotec). While CD4+ and CD8+ T cells were cryopreserved until the experiment day, CD14+ fraction was cultured in the presence of IL-4 (50 ng/mL) and GM-CSF (10 ng/mL) at 10^6 cells/mL during 5 days to obtain moDCs. After this period of time, the moDCs were maturated with LPS and incubated with synthetic ER-derived peptides at a final concentration of 1 μg/mL for 2 hours. Finally, peptide-loaded moDCs were co-cultured with autologous CD4+ and CD8+ T cells in culture medium supplemented with IL-2 (10 U/ml) and IL-7 (100 ng/ml). The ER-derived peptide stimulation of specific CD8+CTL populations was assessed by MHC-I tetramer staining by flow cytometry using a combination of two-color tetramer for each peptide.
(§1) Tetramer Staining. Cells were resuspended in PBS, stained with Live/Dead Aqua-405 nm (ThermoFisher) during 20 minutes at 4° C. and washed once. After that, cells were resuspended in PBS-1% BSA containing the mix of SA-coupled tetramers and incubated in the dark at room temperature during 20 minutes. Without further washing, surface antibodies were added in PBS-1% BSA and cells were incubated 20 minutes in the dark at 4° C. Surface antibodies were a combination of anti-CD3-BV650+anti-CD8-PECy7 in combination with anti-CCR7-AF700+anti-CD45RA-BUV395 when required. Finally, cells were washed twice and resuspended in FACS buffer for flow cytometry analysis.
Priming assays were thus performed to test the ability of identified peptides to expand specific cytotoxic T cells. PBMCs from HLA-A2+healthy donors were used to generate monocyte derived-DCs (moDCs). After loading the moDCs with a mix of synthetic peptides, autologous co-culture was performed with CD4+ and CD8+ T cells. Finally, the expansion of specific CD8+ T cells was analysed by flow cytometry using two-colours tetramer staining. As a control of specific expansion, the co-culture was performed in the absence of peptides.
The same experiment was performed in order to evaluate the response in additional 5 donors. […] As a positive of expansions, mutated Melan-A peptide ([…]) were used.

Assay [2] relates to CD8+ T cells. Put plainly: Tetramer staining of CD8+ T cells from LUAD patient samples (TILs, tumor, juxta tumor, lymph nodes, blood). The assay is classed as cell-based, human. The note with it: TILs from LUAD patients expanded with peptide mix + IL-2 or IL-2 only. How it is done:
as §1
Tissues and Blood samples. […]
Tumor infiltrating lymphocytes (TILs) cultures. […] Cells were feed/split as necessary during 15-20 days and cryopreserve or analyzed for tetramer staining.
In a first set of experiments tumor infiltrating lymphocytes (TILs) expanded with a mix of TE-derived peptides and Il-2, or only with Il-2, were analyzed by tetramer staining. […]
Using this strategy, CD8+ T cells present in Tumor, juxta-tumor, invaded lymph-nodes and blood derived from LUAD patient samples were thus analyzed. The cell phenotype was determined based on the expression of surface markers CCR7 and CD45RA for Naïve (CCR7+CD45+), Central Memory (CM, CCR7+CD45RA−) Effector Memory (EM, CCR7−CD45−) and Terminal Effectors (TE, CCR7−CD45+) T cells. […]

For assay [3], the target named is T1, HLA-A2 molecule (HLA-A*02:01), recombinant monomer (human).
T1 construct: Peptide-free monomer that is incubated with a synthetic peptide for 48 h at 18 C; also called HLA-A2 allele; HLA-A2 monomers
Put plainly: HLA-A2 monomer stabilisation and tetramer formation with synthetic peptide, flow cytometry with PE anti-b2m; positive control CMV peptide.

For the molecule FLIVAEILI, in the assay with CD8+ T cells [1], the “expansion of specific CD8+ T cells (tetramer staining)” value (from here on “expansion of specific CD8+ T cells”) is on record as “expand specific CD8+ T cells”.
Consider GLPSHVELA, for which the “specific CD8+ T expansions (immunogenicity)” value in the assay on CD8+ T cells [1] is “specific CD8+ T expansions; also recorded: immunogenic”. Further, the “CD8+ T cells / TILs recognizing the peptide (tetramer positive)” value in the assay on CD8+ T cells [2] is reported as “found TILs recognizing peptide”.
Take LLDRFGYHV: in the assay on CD8+ T cells [1], the “specific CD8+ T expansions (immunogenicity)” value is reported as “specific CD8+ T expansions”.
For YLWTTFFPL, in the assay with CD8+ T cells [1], the “expansion of specific CD8+ T cells” value is “expand specific CD8+ T cells” and the “specific CD8+ T expansions (immunogenicity)” value is recorded as “specific CD8+ T expansions”.
Regarding ILTASITSI, the “specific CD8+ T expansions (immunogenicity)” value in the assay with CD8+ T cells [1] is “specific CD8+ T expansions”.
Regarding AMDGKELSL, the “specific CD8+ T expansions (immunogenicity)” value in the assay with CD8+ T cells [1] was “specific CD8+ T expansions”.
For the molecule ILSGYGPCV, in the assay on CD8+ T cells [1], the “specific CD8+ T expansions (immunogenicity)” value is listed as “specific CD8+ T expansions”.
In the case of VLLTNTIWL, the “specific CD8+ T expansions (immunogenicity)” value in the assay with CD8+ T cells [1] is reported as “specific CD8+ T expansions”.
Consider LLGETKVYV, for which, in the assay on CD8+ T cells [1], the “expansion of specific CD8+ T cells” value is “expand specific CD8+ T cells” and the “specific CD8+ T expansions (immunogenicity)” value is on record as “specific CD8+ T expansions”.
For the molecule LLHLESFLV, the “specific CD8+ T expansions (immunogenicity)” value in the assay with CD8+ T cells [1] is reported as “specific CD8+ T expansions”.
With ILHSLVTGV, the “specific CD8+ T expansions (immunogenicity)” value with CD8+ T cells [1] was “specific CD8+ T expansions”.
For the molecule MLVTWELAL, the “specific CD8+ T expansions (immunogenicity)” value in the assay on CD8+ T cells [1] was “specific CD8+ T expansions”.
As to AILPKANTV, in the assay with CD8+ T cells [1], the “expansion of specific CD8+ T cells” value is recorded as “expand specific CD8+ T cells” and the “specific CD8+ T expansions (immunogenicity)” value is listed as “specific CD8+ T expansions”.
For FLGTRVTRV, the “specific CD8+ T expansions (immunogenicity)” value in the assay with CD8+ T cells [1] was “specific CD8+ T expansions”.
MLMKTVWQA: the “specific CD8+ T expansions (immunogenicity)” value in the assay with CD8+ T cells [1] is given as “specific CD8+ T expansions”.
Consider RLLHLESFL, for which, in the assay on CD8+ T cells [1], the “expansion of specific CD8+ T cells” value is recorded as “expand specific CD8+ T cells” and the “specific CD8+ T expansions (immunogenicity)” value is reported as “specific CD8+ T expansions”.
Regarding LLTSWHLYL, the “specific CD8+ T expansions (immunogenicity)” value in the assay with CD8+ T cells [1] is on record as “specific CD8+ T expansions”.
With SLMQSGSPV, the “specific CD8+ T expansions (immunogenicity)” value with CD8+ T cells [1] is “specific CD8+ T expansions”.
RLADHLSFC: in the assay with CD8+ T cells [1], the “expansion of specific CD8+ T cells” value was “expand specific CD8+ T cells” and the “specific CD8+ T expansions (immunogenicity)” value is reported as “specific CD8+ T expansions; also recorded: immunogenic”.
With YLPYFLKSL, in the assay with CD8+ T cells [1], the “specific CD8+ T expansions (immunogenicity)” value was “specific CD8+ T expansions”.
On the same count and under the same terms, under VLMWTMAHL stands “specific CD8+ T expansions”; under RQAPGFHHA, “specific CD8+ T expansions”.
For GLLNISHTA, the “specific CD8+ T expansions (immunogenicity)” value with CD8+ T cells [1] is “specific CD8+ T expansions”.
For the molecule FLGTRVTRV (Synthetic peptide) [chimeric transcript-derived peptide FLGTRVTRV], the “percentage of fluorescence relative to positive control (HLA-A2 tetramer formation)” value in assay [3] is over 50%.
As to AILPKANTV (Synthetic peptide) [chimeric transcript-derived peptide AILPKANTV], in assay [3], the “percentage of fluorescence relative to positive control (HLA-A2 tetramer formation)” value is over 50%.

B1: chimeric transcript-derived peptide MLMKTVWQA (peptide)
peptide: MLMKTVWQA
notes: Synthetic peptide; also called peptide 80
Take B1: the “percentage of fluorescence relative to positive control (HLA-A2 tetramer formation)” value in assay [3] was over 50%.
Same read-out and setting: under FLIVAEILI (Synthetic peptide) [chimeric transcript-derived peptide FLIVAEILI] stands over 50%; under YLPYFLKSL (Synthetic peptide) [chimeric transcript-derived peptide YLPYFLKSL], over 50%.
In the case of AMDGKELSL (Synthetic peptide) [chimeric transcript-derived peptide AMDGKELSL], in assay [3], the “percentage of fluorescence relative to positive control (HLA-A2 tetramer formation)” value was over 50%.

B2: chimeric transcript-derived peptide RLADHLSFC (peptide)
peptide: RLADHLSFC
notes: Synthetic peptide; also called peptide 64
As to B2, in assay [3], the “percentage of fluorescence relative to positive control (HLA-A2 tetramer formation)” value was over 50%.
Regarding RLLHLESFL (Synthetic peptide) [chimeric transcript-derived peptide RLLHLESFL], the “percentage of fluorescence relative to positive control (HLA-A2 tetramer formation)” value in assay [3] is over 50%.
